Laboratory results reported in patent US6759228B2, “Alkaline protease” (Kao Corporation, priority 1997, dated 2004).
Where two headings read alike, the source gives them in different places. *1 amine or outer side, *2 acyl side, *3 side chain or, on linkers, in order; H or OH if unused. Where a SMILES comes first, the peptide text is derived from it. CO = O=C([*:1])[*:2]

Legend:
[1] = tested on: KP1790 protease; experiment: Effects of surface active agents: residual activity, casein method; format: biochemical, Bacillus sp. KSM-KP1790; conditions: 1% surfactant, 100 mM borate buffer (pH 10.0), 40° C., 4 hours; no treatment = 100%
[2] = tested on: KP43 protease; experiment: as above; format: biochemical, Bacillus sp. KSM-KP43; conditions: 1% surfactant, 100 mM borate buffer (pH 10.0), 40° C., 4 hours; no treatment = 100%
Procedure: (§1) After 1 mL of 50 mmol/L of various buffer solutions containing 1% (w/v) Casein (Hammerstein: product of Merck Inc.) was maintained at 40° C. for 5 minutes, 0.1 mL of an enzyme solution was added to the solution, followed by incubation at 40° C. for 10 minutes. 2 mL of a TCA solution (0.11 mol/L trichloroacetic acid: 0.22 mol/L sodium acetate: 0.33 mol/L acetic acid) was added to stop the reaction and the mixture was left to stand at room temperature for 10 minutes. Subsequently, acid-denatured protein was filtered (No. 2 filter paper: product of Whattmann). To 0.5 mL of the filtrate, 2.5 mL of alkaline copper reagent (1% (w/v) sodium potassium tartrate: 1% (w/v) copper sulfate: 2% (w/v) sodium carbonate, 0.1 mol/L sodium hydroxide=1:1:100 (v/v)) was added, and after the solution was maintained at 30° C. for 10 minutes, 0.25 mL of diluted phenol reagent (phenol reagent (product of Kanto Chemical) diluted two-fold with deionized water) was added, and after being maintained at 30° C. for 30 minutes, the solution was subjected to an absorbance measurement at 660 nm. The following solution was used as a blank: to the above-described system of enzyme reaction, a reaction termination solution was mixed and then the enzyme solution was added.
(§2) An enzyme solution (7.0×10^−4 mP. U.) was added to 100 mmol/L boric acid buffer solution containing dissolved surfactants in an amount of 1%, and the resultant solution was incubated at 40° C. for 4 hours. The solution was diluted 20-fold with 50 mmol/L boric acid buffer solution (pH 10.0), and residual activity was measured using casein as a substrate.
(§3) Each protease was treated with a variety of 1% surface active agent at 40° C. for 4 hours in […], and residual activity was measured. […] Accordingly, the enzymes are considered to be useful as a detergent component containing surfactants.

[3] = tested on: KP9860 protease; experiment: as above; format: biochemical, Bacillus sp. KSM-KP9860; conditions: 1% surfactant, 100 mM borate buffer (pH 10.0), 40° C., 4 hours; no treatment = 100%
Procedure: as §1, §2, §3

[4] = tested on: KP1790 protease; format: biochemical, Bacillus sp. KSM-KP1790; conditions: pH 7
[5] = tested on: KP9860 protease; experiment: Effects of inhibitors: residual activity, casein method; format: biochemical, Bacillus sp. KSM-KP9860
[6] = tested on: KP43 protease; format: biochemical, Bacillus sp. KSM-KP43; conditions: pH 7
[7] = tested on: all three kinds of proteases (KP43, KP1790, KP9860); format: biochemical, Bacillus sp.; conditions: pH 7
[8] = tested on: KP1790 protease; experiment: Effects of metal ions: residual activity, casein method; format: biochemical, Bacillus sp. KSM-KP1790
[9] = tested on: KP9860 protease; format: biochemical, Bacillus sp. KSM-KP9860
[10] = tested on: KP43 protease; format: biochemical, Bacillus sp. KSM-KP43
[11] = tested on: 3 kinds of proteases (KP43, KP1790, KP9860); experiment: Effects of metal ions, summary for the 3 kinds of proteases; format: biochemical, Bacillus sp.; conditions: 1 mmol/L metal salt, 20 mmol/L boric acid buffer (pH 10), 30° C., 20 minutes
[12] = 1 mM metal salt, 20 mM borate buffer (pH 10.0), 30° C., 20 minutes, no metal salt = 100%
[13] = inhibitor 0.1 mM, 10 mmol/L phosphoric acid buffer (pH 7.0), 30° C., 20 minutes, no inhibitor = 100%
[14] = inhibitor 5 mM, 10 mmol/L phosphoric acid buffer (pH 7.0), 30° C., 20 minutes, no inhibitor = 100%

α-Sulfofatty acid ester [α-Sulfofatty acid ester (α-SFE)]
Residual activity KP1790 [1]: 113% | Residual activity KP43 [2]: 112% | Residual activity KP9860 [3]: 105%

Na polyoxyethylene alkylsulfate [Na polyoxyethylene alkylsulfate (ES)]
Residual activity KP1790 [1]: 102% | Residual activity KP43 [2]: 101% | Residual activity KP9860 [3]: 104%

CCN1C(=O)C=CC1=O [NEM, N-ethylmaleimide]
Residual activity (%) KP1790 [4]: 100% | Residual activity (%) KP9860 ([5]; pH 7): 100% | Residual activity (%) KP43 [6]: 97%

CC(=O)N[C@@H](CC(C)C)C(=O)N[C@@H](CC(C)C)C(=O)N[C@H](C=O)CCCNC(=N)N [Leupeptin]
Residual activity (%) KP1790 [4]: 101% | Residual activity (%) KP9860 ([5]; pH 7): 93% | Residual activity (%) KP43 [6]: 102% | effect of inhibitor on activity [7]: not found

[Cl][Fe]([Cl])[Cl] [FeCl3]
Residual activity (%) KP1790 [8, 12]: 113% | Residual activity (%) KP9860 [9, 12]: 96% | Residual activity (%) KP43 [10, 12]: 93%

CC(C)C[C@H](NC(=O)[C@@H](NC(=O)N[C@@H](Cc1ccccc1)C(=O)O)[C@@H]1CCN=C(N)N1)C(=O)N[C@H](C=O)Cc1ccccc1 [Chymostatin]
Residual activity (%) KP1790 [4]: 87% | Residual activity (%) KP9860 ([5]; pH 7): 80% | Residual activity (%) KP43 [6]: 87% | effect of inhibitor on activity [7]: inhibited

O=S(=O)(F)Cc1ccccc1 [PMSF, phenylmethanesulfonyl fluoride]
Residual activity (%) KP1790 [4]: 0% | Residual activity (%) KP9860 ([5]; pH 7): 0% | Residual activity (%) KP43 [6]: 0% | effect of inhibitor on activity [7]: inhibited

[Cl-].[Cl-].[Mg+2] [MgCl2]
Residual activity (%) KP1790 [8, 12]: 103% | Residual activity (%) KP9860 [9, 12]: 100% | Residual activity (%) KP43 [10, 12]: 92%

CC(C)[C@H](NC(=O)[C@H](CCCNC(=N)N)NC(=O)N[C@@H](Cc1ccccc1)C(=O)O)C(=O)N[C@H](C=O)CCCNC(=N)N [Antipine] ({Phe-CO}-Arg-Val-Arg-aldehyde)
Residual activity (%) KP1790 [4]: 99% | Residual activity (%) KP9860 [5, 13]: 97% | Residual activity (%) KP43 [6]: 103% | effect of inhibitor on activity [7]: not found

O=C(O)CN(CCOCCOCCN(CC(=O)O)CC(=O)O)CC(=O)O [EGTA, ethyleneglycoltetraacetic acid]
Residual activity (%) KP1790 [4]: 91% | Residual activity (%) KP9860 [5, 14]: 90% | Residual activity (%) KP43 [6]: 92%

[Ca+2].[Cl-].[Cl-] [CaCl2, calcium chloride]
Residual activity (%) KP1790 ([8]; pH 10): 95% | Residual activity (%) KP9860 ([9]; pH 10): 101% | Residual activity (%) KP43 ([10]; pH 10): 97%

CCCCCCCCCCCCOS(=O)(=O)[O-].[Na+] [Na dodecyl sulfate (SDS), Na dodecyl sulfate]
Residual activity KP1790 [1]: 97% | Residual activity KP43 [2]: 104% | Residual activity KP9860 [3]: 103%

CC(C)C[C@H](NC(=O)[C@H]1O[C@@H]1C(=O)O)C(=O)NCCCCN=C(N)N [E-64]
Residual activity (%) KP1790 [4]: 99% | Residual activity (%) KP9860 ([5]; pH 7): 103% | Residual activity (%) KP43 [6]: 104%

O[C@H](CS)[C@H](O)CS (racemic) [DTT, dithiothreitol]
Residual activity (%) KP1790 [4]: 102% | Residual activity (%) KP9860 [5, 14]: 105% | Residual activity (%) KP43 [6]: 104%

[Cl-].[Cl-].[Zn+2] [ZnCl2]
Residual activity (%) KP1790 [8, 12]: 94% | Residual activity (%) KP9860 [9, 12]: 91% | Residual activity (%) KP43 [10, 12]: 85%

O=C(O)c1cc[c]([Hg][Cl])cc1 [PCMB, p-chloromercury benzoate]
Residual activity (%) KP1790 [4]: 115% | Residual activity (%) KP9860 ([5]; pH 7): 126% | Residual activity (%) KP43 [6]: 125%

[Cl][Hg][Cl] [HgCl2, mercury chloride]
Residual activity (%) KP1790 [8, 12]: 37% | Residual activity (%) KP9860 [9, 12]: 33% | Residual activity (%) KP43 [10, 12]: 38% | effect of metal salt on activity [11]: inhibited

O=[N+]([O-])[O-].[Ag+] [AgNO3, silver nitrate]
Residual activity (%) KP1790 [8, 12]: 70% | Residual activity (%) KP9860 [9, 12]: 45% | Residual activity (%) KP43 [10, 12]: 66% | effect of metal salt on activity [11]: inhibited

c1cnc2c(c1)ccc1cccnc12 [o-Phenanthroline]
Residual activity (%) KP1790 [4]: 103% | Residual activity (%) KP9860 [5, 14]: 100% | Residual activity (%) KP43 [6]: 100%

CC(C)C[C@H](NC(=O)N[C@H](C(=O)N[C@@H](CCC(N)=O)C(=O)N[C@@H](C)C=O)[C@@H]1CCNC(=N)N1)C(=O)O [Elastatinal]
Residual activity (%) KP1790 [4]: 102% | Residual activity (%) KP9860 [5, 13]: 102% | Residual activity (%) KP43 [6]: 99%

[Cl][Cu][Cl] [CuCl2]
Residual activity (%) KP1790 [8, 12]: 96% | Residual activity (%) KP9860 [9, 12]: 94% | Residual activity (%) KP43 [10, 12]: 91%

Na α-olefinsulfonate [Na α-olefinsulfonate (AOS)]
Residual activity KP1790 [1]: 111% | Residual activity KP43 [2]: 100% | Residual activity KP9860 [3]: 100%

O=C(O)CN(CCN(CC(=O)O)CC(=O)O)CC(=O)O [EDTA, ethylenediaminetetraacetic acid]
Residual activity (%) KP1790 [4]: 97% | Residual activity (%) KP9860 [5, 14]: 101% | Residual activity (%) KP43 [6]: 110%

Na alkyl sulfate [Na alkyl sulfate (AS)]
Residual activity KP1790 [1]: 107% | Residual activity KP43 [2]: 113% | Residual activity KP9860 [3]: 107%

Na linear alkylbenzenesulfonate [Na linear alkylbenzenesulfonate (LAS)]
Residual activity KP1790 [1]: 88% | Residual activity KP43 [2]: 100% | Residual activity KP9860 [3]: 100%

[Cl][Ni][Cl] [NiCl2]
Residual activity (%) KP1790 [8, 12]: 95% | Residual activity (%) KP9860 [9, 12]: 96% | Residual activity (%) KP43 [10, 12]: 92%

CoCl2
Residual activity (%) KP1790 ([8]; pH 10): 101% | Residual activity (%) KP9860 ([9]; pH 10): 98% | Residual activity (%) KP43 ([10]; pH 10): 91%
